Measurements reported in patent publication US9932297B2, “Alkynes and methods of reacting alkynes with 1,3-dipole-functional compounds” (UNIVERSITY OF GEORGIA RESEARCH FOUNDATION, INC., priority 2007, dated 2018).

Legend:
[1] = Cycloaddition with benzyl azide, second-order rate constant by 1H NMR; type: physicochemical; details: for second-order rate constant: NMR
Method: However, upon exposure to azides a fast reaction took place and gave the corresponding triazoles in high yield. For example, triazoles 10-13 were obtained in quantitative yields as mixtures of regioisomers by reaction of the corresponding azido-containing sugar and amino acid derivatives with 3 in methanol for 30 minutes (Scheme 2; FIG. 3 and FIG. 4). The progress of the reaction of 3 with benzyl azide in methanol and in a mixture of water/acetonitrile (1:4 v/v) was monitored by NMR spectroscopy by integration of the benzylic proton signals, and second-order rate constants of 0.17 and 2.3 m^−1s^−1, respectively, were determined.
A number of analogs (63-68) of 4-dibenzocyclooctynol (61) were prepared and the influence of these modifications on the reaction rate of the cycloaddition with benzyl azide was determined by integration of the benzylic proton signals in ^1H NMR spectrum.
General Method for Calculating Second Order Rate Constants by NMR.
Substrates were dissolved separately in the appropriate solvent and mixed 1:1 at 6 mM concentrations. Percent conversion was monitored both by disappearance of starting material and appearance of the two regioisomeric products as determined by integration at multiple chemical shifts. Second order rate constants for the reaction were determined by plotting the 1/[substrates] versus time and analysis by linear regression. Second order rate constants correspond to one half of the determined slope.

[2] = Shelf life and reactivity towards nucleophiles; type: physicochemical
[3] = test system: Jurkat cells bearing azides (Ac4ManNAz-treated); assay: Cell surface azide labeling and detection by fluorescence intensity (avidin-FITC); type: cell-based, Human
Method: FIG. 6 illustrates embodiments of cell-surface labeling with compounds 2 and 9. Jurkat cells grown for three days in the absence or presence of Ac4ManNAz (25 micromolar) were incubated a) with compounds 2 and 9 (30 micromolar) for 0-180 minutes or b) with compounds 2 and 9 (0-100 micromolar) for 1 hour at room temperature. Next, the cells were incubated with avidin-FITC for 15 minutes at 4° C., after which cell lysates were assessed for fluorescence intensity. Samples are indicated as follows: blank cells incubated with 2 (∘) or 9 (□), and Ac,ManNAz cells incubated with 2 (●) or 9 (▪).
Next, Jurkat cells were cultured in the presence of 25 micromolar N-azidoacetylmannosamine (Ac4ManNAz) for three days to metabolically introduce N-azidoacetylsialic acid (SiaNAz) moieties into glycoproteins (Luchansky and Bertozzi, Chem-BioChem 2004, 5:1706-1709). As a negative control, Jurkat cells were employed that were grown in the absence of Ac4ManNAz. The cells were exposed to a 30 micromolar solution of compound 9 for various time periods, and after washing, the cells were stained with avidin-fluorescein isothiocyanate (FITC) for 15 minutes at 4° C. The efficiency of the two-step cell-surface labeling was determined by measuring the fluorescence intensity of the cell lysates. […]

[4] = test system: CHO cells bearing azides (Ac4ManNAz-treated); assay: Cell labeling and detection by fluorescence (confocal) microscopy; type: cell-based, Chinese hamster
Method: FIG. 8 illustrates fluorescence images for embodiments of cells labeled with compound 9 and avidin-Alexa Fluor 488. CHO cells grown for 3 days in the absence (d-f) or presence (a-c) of Ac4ManNAz (100 micromolar) were incubated with compound 9 (30 micromolar) for 1 hour at 4° C. (a, d) or room temperature (b, c, e, f). Next, cells were incubated with avidin-Alexa Fluor 488 for 15 minutes at 4° C. and, after washing, fixing, and staining for the nucleus with far-red-fluorescent dye TO-PRO, imaged (a, b, d, e) or after washing incubated for 1 hour at 37° C. before fixing, nucleus staining, and imaging (c, f).
Next, attention was focused on visualizing azido-containing glycoconjugates of living cells by confocal microscopy. Thus, adherent Chinese hamster ovary (CHO) cells were cultured in the presence of Ac4ManNAz (100 micromolar) for three days. The resulting cell-surface azido moieties were treated with 9 (30 micromolar) for 1 hour and then with avidin-AlexaFluor488 for 15 minutes at 4° C.
Cell-surface glycoconjugates are constantly recycled by endocytosis, and to monitor this process, metabolically labeled cells were reacted with 9 and avidin-AlexaFluor488 according to the standard protocol and incubated at 37° C. for 1 hour before examination by confocal microscopy.
Chinese hamster ovary (CHO) cells (Clone K1; ATCC) were cultured in Kaighn's modification of Ham's F-12 medium (F-12K) with L-glutamine (2 mM), adjusted to contain sodium bicarbonate (1.5 g L^−1) and supplemented with penicillin (100 u mL^−1)/streptomycin (100 micrograms mL^−1 and FBS (10%). Cells were maintained in a humid 5% CO2 atmosphere at 37° C. CHO cells were grown in the presence of Ac4ManNaz (100 micromolar final concentration) for 3 days to metabolically incorporate SiaNAz into their cell surface glycoproteins. CHO cells bearing azides and untreated control cells were then transferred to a glass coverslip and cultured for 36 hours in their original medium. […] The step size, based on the calculated optimum for each objective, was between 0.25 and 0.5 micrometers. […]

[5] = Solubility seen in the labeling experiment; type: physicochemical; details: no increase in labeling above 100 micromolar
Method: The concentration dependence of the cell-surface labeling was studied by incubation of cells with various concentrations of 2 and 9 followed by staining with avidin-FTIC (FIG. 6b).

[6] = cycloaddition with benzyl azide

In the case of `OC1Cc2ccccc2C#Cc2ccccc21` (stereo not drawn) [Compound 3, 3-Hydroxy-7,8-didehydro-1,2:5,6-dibenzocyclooctene], the “rate constant compared with cyclooctyne 1” value ([1]; acetonitrile/water) is reported as “three orders of magnitude greater”, the second-order rate constant ([1]; reaction with benzyl azide in methanol) is reported as 0.17 m^−1s^−1 and the second-order rate constant ([1]; reaction with benzyl azide in water/acetonitrile (1:4 v/v)) is reported as 2.3 m^−1s^−1. The shelf life [2] was “excellent, long shelf life” and the reactivity with nucleophiles ([2]; thiols and amines) was “did not react with nucleophiles such as thiols and amines”.

With `O=C(CCCCC1SCC2NC(=O)NC21)NCCOCCOCCNC(=O)OC1Cc2ccccc2C#Cc2ccccc21` (stereo not drawn) [Compound 9, Carbonic acid 7,8-didehydro-1,2:5,6-dibenzocyclooctene-3-yl ester, 8′-biotinylamine-3′,6′-dioxaoctane 1′-amide] the “incubation time after which labeling was almost complete” value ([3]; 30 micromolar, room temperature, then avidin-FITC) was 60 min, the “concentration at which reliable fluorescent labeling was achieved” value ([3]; 1 hour at room temperature) was 3 µM and the “labeling efficiency at ambient temperature versus 4° C.” value ([4]; 30 micromolar, 1 hour) was “equally efficient when performed at either ambient temperature or 4 °C”. For the same compound, the location of staining ([4]; 30 micromolar, 1 hour, then avidin-AlexaFluor488) was “staining was observed only at the surface”, the “internalization of labeled glycoproteins” value ([4]; after labeling, incubated at 37° C. for 1 hour) was “a significant quantity of labeled glycoproteins had been internalized into vesicular compartments” and the solubility [5] was “limited solubility”. The “effect on cell viability” value (Jurkat cells; two-step labeling, morphology and exclusion of trypan blue) was “no effect on cell viability”.

With `C1#Cc2ccccc2CCc2ccccc21` [Compound 62, reference compound] the “times slower reaction than 4-dibenzocyclooctynol (61)” value [1, 6] was “approximately 70 times”.

For `O=C1Cc2ccccc2C#Cc2ccccc21` [Compound 67, 6H-11,12-didehydro-dibenzo[a,e]cyclooctatrien-5-one], the “reaction rate compared with 61 (in words)” value [1, 6] was “slightly higher reaction rate than 1”.

With `[Cl][Cu]` [Cu^ICl, reference compound] the cell death (Jurkat cells) was “approximately 98%”.
